The values that follow are results of earlier work, collected in patent US20250064971A1, “SUSTAINED RELEASE FORMULATIONS AND METHODS OF USE THEREOF” (VIRGINIA COMMONWEALTH UNIVERSITY, priority 2022, published 2025).

The data set has as its target hERG (Homo sapiens, UniProt Q12809). As to conditions: compared to LAAM.

hERG, sequence (Q12809 whole entry): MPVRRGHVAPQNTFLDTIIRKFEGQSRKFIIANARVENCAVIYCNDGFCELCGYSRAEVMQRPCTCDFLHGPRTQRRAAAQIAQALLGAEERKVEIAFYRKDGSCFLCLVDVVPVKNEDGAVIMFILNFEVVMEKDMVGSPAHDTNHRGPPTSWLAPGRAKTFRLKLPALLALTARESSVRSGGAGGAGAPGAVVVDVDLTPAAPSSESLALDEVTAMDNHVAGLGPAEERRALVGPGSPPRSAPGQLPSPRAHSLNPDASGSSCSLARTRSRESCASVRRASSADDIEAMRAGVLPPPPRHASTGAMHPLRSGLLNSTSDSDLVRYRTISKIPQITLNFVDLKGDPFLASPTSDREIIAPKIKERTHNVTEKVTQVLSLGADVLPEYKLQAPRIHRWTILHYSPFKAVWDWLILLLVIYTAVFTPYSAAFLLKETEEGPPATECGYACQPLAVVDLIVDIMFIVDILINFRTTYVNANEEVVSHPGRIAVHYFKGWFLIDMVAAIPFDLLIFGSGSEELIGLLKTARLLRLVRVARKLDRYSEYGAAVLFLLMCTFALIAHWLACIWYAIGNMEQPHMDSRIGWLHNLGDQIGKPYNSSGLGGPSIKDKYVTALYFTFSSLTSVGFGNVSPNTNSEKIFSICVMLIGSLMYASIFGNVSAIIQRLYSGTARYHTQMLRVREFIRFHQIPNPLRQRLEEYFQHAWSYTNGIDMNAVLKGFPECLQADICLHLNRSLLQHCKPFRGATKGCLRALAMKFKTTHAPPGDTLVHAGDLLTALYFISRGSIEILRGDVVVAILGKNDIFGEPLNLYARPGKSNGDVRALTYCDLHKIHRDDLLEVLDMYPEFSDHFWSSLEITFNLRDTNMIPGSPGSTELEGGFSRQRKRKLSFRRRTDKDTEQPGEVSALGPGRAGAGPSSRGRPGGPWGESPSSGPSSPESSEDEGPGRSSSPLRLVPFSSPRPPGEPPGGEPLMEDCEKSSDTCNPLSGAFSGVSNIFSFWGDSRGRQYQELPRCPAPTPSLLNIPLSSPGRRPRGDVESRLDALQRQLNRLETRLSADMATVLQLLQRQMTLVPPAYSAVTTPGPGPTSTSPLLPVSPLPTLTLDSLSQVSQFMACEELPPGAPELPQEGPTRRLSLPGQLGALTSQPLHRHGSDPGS

As to `CCC(OC(C)=O)C(CC(C)NC)(c1ccccc1)c1ccccc1` (stereo not shown) [nor-LAAM], the “hERG inhibition IC50 (comparison in words)” value was “higher hERG inhibition IC50 than LAAM”.
